What all share (format): cell-based
The test system of data set [1] is pancreatic BxPC-3 cells. Description: PrestoBlue cell viability assay, 5 days treatment. To be noted: for toxigenic effect of prodrug combined with Pd^0-resins (BOOM conversion): BxPC-3, prodrug 30 μM + Pd^0-resin 1 mg/mL; for EC50: Homo sapiens, 120 h, PrestoBlue. The protocol:
(§1) The toxicities of 5FU and its prodrugs were compared by performing dose-response studies with 5FU and Pro-5FU (0.01 μM to 1 mM). Doses of Pro-5FU and 5FU (0.01, 0.03, 0.1, 0.3, 1, 3, 10, 30 and 100 μM, for both cell lines, and additional doses of 300 μM and 1,000 μM for colorectal HCT116 cells) were incubated with cells for 5 days and cell viability measured to determine the corresponding EC values. Cell viability was analysed by fluoresce intensity nm; nm) after 45 min incubation with PrestoBlue™ Reagent (Life Technologies).
(§2) The toxigenic effect as a result of in situ generation of 5FU in cell culture was determined by incubating colorectal HCT116 cells or pancreatic BXPc-3 cells in tissue culture media containing 0.1% (viv) DMSO and a) Pd^0-resin (1 mg/mL, negative control); b) prodrug (negative, control); or c) Pd^0-resin (1 mg prodrug (reaction assay). Cells incubated in 0.1% (v/v) DMSO in media was used as an untreated cell reference standard (100% viability). A PrestoBlue® cell viability assay as described above was carried out and fluorescent intensities compared to the untreated cell control. Prodrug concentrations were 100 μM for HCT116 cells, and 30 μM for BxPC-3 cells.
(§3) HCT116 and BXPc-3 cells were plated in Dulbecco's Modified Eagle Media (DMEM) and Roswell Park Memorial Institute (RPMI) respectively, supplemented with serum (10% FBS) and L-glutamine (2 mM). Cells were seeded in a 96 wail plate format with a density of either 30.000 cells and incubated for 48 h at 37° C. and 5% CO2 before treatment. Each well was then replaced with fresh media containing: Pd^0-resins (1 mg/ml) (negative control); prodrug (0.01 μM to 1 mM) in DMSO (0.1% v/v) (negative control); 5FU (0.01 μM to 1 mM) in DMSO (0.1% v/v) (positive control); or a combination of Pd^0 resin+prodrug (0.01 μM to 1 mM in 0.1% v/v DMSO). Cells incubated in 0.1% (v/v) DMSO in media were used as untreated cell reference standard (i.e. 100% cell viability). Cells were incubated in the fresh media for 5 days. PrestoBlue cell viability reagent (Life Technologies) (10% v/v) was then added to each well and the plate incubated for 45 min, Fluorescence intensity values (detected using a PerkinElmer EnVision 2101 multilabel reader with excitation filter at 540 nm and emissions filter at 590 nm) were determined relative to the untreated cell control.

Data set [2] deals with colorectal HCT116 cells. In words: PrestoBlue cell viability assay, 5 days treatment. To be noted: for toxigenic effect of prodrug combined with Pd^0-resins (BOOM conversion): HCT116, prodrug 100 μM + Pd^0-resin 1 mg/mL; for cytotoxic effect / effect on cell viability of prodrug alone: HCT116, without palladium, 5 days, doses up to 1,000 μM (FIG. 18A: 0.1-300 μM). The protocol: as §1, §2, §3

The test system of data set [3] is HCT116 cells. In words: Real-time confluence study (Incucyte live-cell imaging). The following applies: HCT116, 100 μM, 5 days (120 h). The protocol: FIGS. 9A and 9B show real-time cell confluence study data for Pro-5FU and 5FU (HCT116 cells in FIG. 9A and BXPc-3 cells in FIG. 9B) plotting cell proliferation (indicated by % phase object confluence) against time. Cell proliferation was monitored for 5 days (120 h) using the high-content live-cell imaging system Incucyte™ (Essen BioScience) placed in an incubator (5% CO2, 37° C.), Pro-5FU and 5FU were used at 100 μM and 10 μM for HCT116 and BXPc-3 cells, respectively.
(§4) To study the phenotypic effect of the prodrug catalyst system compared to 5FU, cell proliferation was monitored for 5 days (120 h) using the high-content live-cell imaging system Incucyte™ Essen BioScience) placed in an incubator (5% CO2, 37° C.). Cell confluence analysis and supplementary movies 1 and 2 were carried out using the Incucyte software. Experiments (performed as described above for the dose response cell viability assay) were imaged by time-lapse contrast phase microscopy and cell growth represented as a function of total cell confluence.

Data set [4] deals with total p53 protein and phosphorylated p53 (Serine 15) in HCT116 cells. In words: Zeptosens Reverse Phase Protein Microarray analysis. To be noted: HCT116, 100 μM, 24 h exposure. The protocol: Post-translational modifications of cancer relevant pathways (including p53) were quantified by antibody-based proteomics across time-series studies using Zeptosens Reverse Phase Protein Microarray analysis.
Cells were plated in their respective supplemented media in a 6 well plate at a density of 240,000 cells/mL and incubated for 46 h. Before adding to the cells, Fro-5FU (100 μM for HCT116) and Pd^0-resins (1 mg/mL) were incubated for 24h to overcome the time relapse required to convert Pro-5FU into 5FU. Cells were treated with the Pd^8 resin+Pro-5FU combination and the controls (as before: untreated cells; Pd^0; Pro-5FU; and 5FU) and incubated for 6 and 24 h. Afterwards, the cells were washed with PBS (2×3 mL) and lysed with Zeptosens CLB1 lysis buffer (90 μl). Samples were analyzed by Zeptosens RPPA using the following specific conditions. Tumor cell lysates were normalized to a uniform protein concentration with spotting buffer CSBL1 (Zeptosens-Bayer) prior to preparing a final 4-fold concentration series of; 0.2; 0.15; 0.1 and […]. […] A weighted linear fit through the 4-fold concentration series was used to calculate relative fluorescence intensity (RFI) value for each sample replicate. […] Abundance levels of total p53 protein and phosphorylated p53 (Serine 15) were plotted as RFI data calculated by the ZeptoView™ 3.1 software.

Data set [5] has as its system BxPC-3 cells. In words: Real-time confluence study (Incucyte live-cell imaging). The following applies: BxPC-3, 30 μM, 5 days (120 h). The protocol:
FIGS. 9A and 9B show real-time cell confluence study data for Pro-5FU and 5FU (HCT116 cells in FIG. 9A and BXPc-3 cells in FIG. 9B) plotting cell proliferation (indicated by % phase object confluence) against time. […]
as §4

For data set [6], the system named is pancreatic BxPC-3 cells. Description: Test for competitive inhibition by prodrug (cell viability). The following applies: BxPC-3, 5FU 1 μM + Pro-5FU 0.1-1,000 μM, prodrug/drug ratio up to 100:1. The protocol: (§5) Cells were incubated with 5FU (10 μM for HCT116 cells and 1 μM for BxPC-3 cells) in combination with increasing doses of Pro-5FU (0.1-1,000 μM), and cell viability determined.

The test system of data set [7] is colorectal HCT116 cells. The data set is described as above. To be noted: HCT116, 5FU 10 μM + Pro-5FU 0.1-1,000 μM, prodrug/drug ratio up to 100:1. The protocol: as §5

Molecules are shown by their SMILES. Read-outs that look alike come from different tables or passages of the source.

As to `C=CCn1cc(F)c(=O)[nH]c1=O` [All-5FU], the “toxigenic effect of prodrug combined with Pd^0-resins (BOOM conversion)” value in data set [1] and in data set [2] was “No appreciable cytotoxicity” throughout.
Turning to `O=c1[nH]c(=O)n(Cc2ccccc2)cc1F` [Bn-5FU], the “toxigenic effect of prodrug combined with Pd^0-resins (BOOM conversion)” value in data set [1] and in data set [2] was “low levels of toxicity” throughout.
Turning to `O=c1[nH]cc(F)c(=O)[nH]1` [Compound 5FU, 5-fluorouracil], the “cell growth (confluence) vs time” value in data set [3] and in data set [5] was “decreased rapidly after a few hours” throughout. The “abundance of total and Ser15-phosphorylated p53” value in data set [4] is “overexpressed”. Moreover, the EC50 – broadly, the midpoint of the concentration-response curve – turned out to be 136 nM in data set [1] (BXPc-3, 5 days incubation, read-out: EC50 5FU); 136 nM in data set [1] (BxPC-3, 5 days incubation, read-out: EC50); 2000 nM in data set [2] (Homo sapiens, HCT-116, 120 h, HCT116, 5 days incubation, PrestoBlue, read-out: EC50 5FU).
Turning to `C#CCn1c(=O)[nH]cc(F)c1=O` [Compound 6], the “cytotoxic effect / effect on cell viability of prodrug alone” value in data set [2] is recorded as “no effect”.
Consider `C#CCn1c(=O)c(F)cn([C@H]2CC(O)[C@@H](CO)O2)c1=O` (stereo partly shown) [Compound 11, 3-propergyl-floxuridine], for which, in data set [2] (HCT116, dose range 0.003-30 μM, without palladium), the “times less cytotoxic effect on cell viability than floxuridine” value is listed as “over 1000 times”.
`O=c1[nH]c(=O)n([C@H]2C[C@H](O)[C@@H](CO)O2)cc1F` [FUDR, floxuridine]: the “times more potent than 5-FU” value in data set [2] is listed as “around 50 times”.
For `C#CCn1cc(F)c(=O)[nH]c1=O` [Pro-5FU], in data set [4], the “abundance of total and Ser15-phosphorylated p53” value is given as “no induction”. In addition, the “effect of prodrug on cytotoxicity of 5FU” value in data set [6] and in data set [7] was “no antagonistic effect” throughout. Moreover, the “fold reduction in effect versus 5FU” value in data set [1] (BxPC-3, prodrug without palladium) is listed as “greater than 700 fold”. In addition, the “fold reduction in effect, EC50 (Pro-5FU)/EC50 (5FU)” value in data set [2] (HCT116, prodrug without palladium) is recorded as “greater than 500 fold”. For the same compound, in data set [2], the “cytotoxic effect / effect on cell viability of prodrug alone” value is on record as “no effect”.

The record behind these values is patent US20180362473A1, “BIOORTHOGONAL METHODS AND COMPOUNDS” (The University Court of the University of Edinburgh, priority 2013, published 2018).
